Results from patent US20020037931A1, “Substituted nitrated catechols, their use in the treatment of some central and peripheral nervous system disorders and pharmaceutical compositions containing them” (priority 2000, published 2002).

Legend:
COMT [1] = experiment: COMT activity (methylation of adrenaline to metanephrine) in rat brain homogenates; assay type: biochemical; conditions: rat brain homogenate; test compound 100 nM; means±SEM, n=4-8
COMT [2] = molecular target: T1, COMT (Homo sapiens, UniProt P21964); experiment: COMT activity in intact SK-N-SH cell monolayers; assay type: cell-based; conditions: SK-N-SH cells; test compound 100 nM; means±SEM, n=4-8
T1 construct: COMT activity was evaluated in cell monolayers by the ability to methylate adrenaline; host or cells: SK-N-SH cells
T1 sequence (P21964 1-271): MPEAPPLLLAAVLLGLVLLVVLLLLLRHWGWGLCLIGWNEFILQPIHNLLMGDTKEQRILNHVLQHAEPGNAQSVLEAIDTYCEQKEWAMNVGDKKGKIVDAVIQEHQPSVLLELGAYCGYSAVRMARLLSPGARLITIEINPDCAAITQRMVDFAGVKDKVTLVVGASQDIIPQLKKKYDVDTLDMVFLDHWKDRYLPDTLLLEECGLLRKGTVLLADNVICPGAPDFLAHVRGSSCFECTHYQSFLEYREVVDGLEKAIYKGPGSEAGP

COMT [3] = experiment: COMT activity (methylation of adrenaline to metanephrine) in rat liver homogenates; assay type: biochemical; conditions: rat liver homogenate; test compound 3 μM; means±SEM, n=4-8

SMILES | COMT activity, Brain (% of control) (COMT [1]) | COMT activity, SK-N-SH (% of control) (COMT [2]) | COMT activity, Liver (% of control) (COMT [3])
CN(C)c1ccc(C=C2CCc3cc(O)c(O)c([N+](=O)[O-])c3C2=O)cc1 [Compound 9, 2-(4-Dimethylamino-benzylidene)-6,7-dihydroxy-8-nitro-3,4-dihydro-2H-naphthalen-1-one] | 47 ± 5 % of control | 8 ± 1 % of control | 9.0 ± 1.6 % of control
O=C1c2ccccc2C(=O)c2c1cc(O)c(O)c2[N+](=O)[O-] [Compound 18, 2,3-Dihydroxy-1-nitro-anthraquinone] | 17 ± 1 % of control | 70 ± 5 % of control | 2.0 ± 0.0 % of control
COc1cc(C=C2Cc3cc(O)c(O)c([N+](=O)[O-])c3C2=O)cc([N+](=O)[O-])c1O [Compound 10, 5,6-Dihydroxy-2-(4-hydroxy-3-methoxy-5-nitro-benzylidene)-7-nitro-indan-1-one] | 14 ± 1 % of control | 24 ± 2 % of control | 0.3 ± 0.1 % of control
O=C(CCCc1ccccc1)c1ccc(O)c(O)c1[N+](=O)[O-] [Compound 15, 1-(3,4-dihydroxy-2-nitro-phenyl)4-phenyl-butan-1-one] | 7 ± 2 % of control | 13 ± 4 % of control | 0.5 ± 0.0 % of control
O=C(CCN1CCCC1)c1ccc(O)c(O)c1[N+](=O)[O-] [Compound 28, 1-(3,4-Dihydroxy-2-nitro-phenyl)-3-pyrrolidin-1-yl-propan-1-one] | 14 ± 1 % of control | 7 ± 0 % of control | 2.2 ± 0.2 % of control
CCOC(=O)Oc1ccc(C(=O)CCCc2ccccc2)c([N+](=O)[O-])c1OC(=O)OCC [Compound 51, Carbonic acid, 2-ethoxycarbonyloxy-3-nitro-4-(4-phenyl-butyryl)-phenyl ester ethyl ester] | 0 ± 0 % of control | 1 ± 0 % of control | 0.6 ± 0.3 % of control
O=C1c2c(cc(O)c(O)c2[N+](=O)[O-])CC1CN1CCN(c2ccccc2)CC1 (stereo not shown) [Compound 44, 5,6-Dihydroxy-7-nitro-2-(4-phenyl-piperazin-1-ylmethyl)-indan-1-one] | 10 ± 0 % of control | 9 ± 2 % of control | 0.6 ± 0.2 % of control
O=[N+]([O-])c1c(O)c(O)cc2c1C(=NO)CC2 [Compound 6, 5,6-Dihydroxy-7-nitro-indan-1-one Oxime] | 33 ± 1 % of control | 39 ± 3 % of control | 1.77 ± 0.1 % of control
CCN(CC)C(=O)C1CCCN(CCC(=O)c2ccc(O)c(O)c2[N+](=O)[O-])C1 (stereo not shown) [Compound 31, 1-[3-(3,4-Dihydroxy-2-nitro-phenyl)-3-oxo-propyl]-piperidine-3-carboxylic acid diethylamide] | 8 ± 0 % of control | 13 ± 2 % of control | 1.7 ± 0.6 % of control
CC1CCCN(CCC(=O)c2ccc(O)c(O)c2[N+](=O)[O-])C1 (stereo not shown) [Compound 32, 1-(3,4-Dihydroxy-2-nitro-phenyl)-3-(3-methyl-piperidin-1-yl)-propan-1-one] | 10 ± 0 % of control | 11 ± 2 % of control | 2.3 ± 0.2 % of control
O=C(CCc1ccccc1)c1ccc(O)c(O)c1[N+](=O)[O-] [Compound 14, 1-(3,4-Dihydroxy-2-nitro-phenyl)-3-phenyl-propan-1-one] | 5 ± 1 % of control | 5 ± 2 % of control | 0.3 ± 0.0 % of control
O=C1C(=Cc2cc(O)c(O)c([N+](=O)[O-])c2)Cc2cc(O)c(O)c([N+](=O)[O-])c21 [Compound 16, 2-(3,4-Dihydroxy-5-nitro-benzylidene)-5,6-dihydroxy-7-nitro-indan-1-one] | 20 ± 1 % of control | 92 ± 1 % of control | 2.0 ± 0.2 % of control
CC1CC(C)CN(CCC(=O)c2ccc(O)c(O)c2[N+](=O)[O-])C1 (stereo not shown) [Compound 35, 1-(3,4-Dihydroxy-2-nitro-phenyl)-3-(3,5-dimethyl-piperidin-1-yl)-propan-1-one] | 9 ± 0 % of control | 13 ± 1 % of control | 23. ± 0.3 % of control
CC(=O)Oc1ccc(C(=O)CCCc2ccccc2)c([N+](=O)[O-])c1OC(C)=O [Compound 49, Acetic acid, 6-acetoxy-2-nitro-3-(4-phenyl-butyryl)-phenyl ester] | 0 ± 0 % of control | 1 ± 0 % of control | 1.4 ± 0.8 % of control
CCOC(=O)Oc1ccc(C(=O)Cc2ccccc2)c([N+](=O)[O-])c1OC(=O)OCC [Compound 48, Carbonic acid, 2-ethoxycarbonyloxy-3-nitro-4-phenylacetyl-phenyl ester ethyl ester] | 0 ± 0 % of control | 7 ± 3 % of control | 0.5 ± 0.1 % of control
O=C1c2c(cc(O)c(O)c2[N+](=O)[O-])CC1CN1CCCCC1 (stereo not shown) [Compound 30, 5,6-Dihydroxy-7-nitro-2-piperidin-1-ylmethyl-indan-1-one] | 8 ± 0 % of control | 17 ± 1 % of control | 1.4 ± 0.1 % of control
CCOC(=O)Oc1cc(C(=O)c2ccccc2)c(C(=O)c2ccccc2)c([N+](=O)[O-])c1OC(=O)OCC [Compound 23, Carbonic Acid 4,5-Dibenzoyl-2-ethoxycarbonyloxy-3-nitro-phenyl Ester Ethyl Ester] | 10 ± 1 % of control | 24 ± 1 % of control | 2.5 ± 1.2 % of control
O=C(CCN1CCCCC1)c1ccc(O)c(O)c1[N+](=O)[O-] [Compound 27, 1-(3,4-Dihydroxy-2-nitro-phenyl)-3-piperidin-1-yl-propan-1-one] | 15 ± 1 % of control | 5 ± 1 % of control | 2.4 ± 0.2 % of control
CCCN1CCN(CCC(=O)c2ccc(O)c(O)c2[N+](=O)[O-])CC1 [Compound 39, 1-(3,4-Dihydroxy-2-nitro-phenyl)-3-(4-propyl-piperazin-1-yl)-propan-1-one] | 8 ± 0 % of control | 11 ± 0 % of control | 0.8 ± 0.2 % of control
COc1ccc(C=C2Cc3cc(O)c(O)c([N+](=O)[O-])c3C2=O)cc1OC [Compound 7, 2-(3,4-Dimethoxy-benzylidene)-5,6-dihydroxy-7-nitro-indan-1-one] | 14 ± 1 % of control | 23 ± 1 % of control | 0.6 ± 0.3 % of control
O=C(CCN1CCN(c2cccc(C(F)(F)F)c2)CC1)c1ccc(O)c(O)c1[N+](=O)[O-] [Compound 38, 1-(3,4-Dihydroxy-2-nitro-phenyl)-3-[4-(3-trifluoromethyl-phenyl)-piperazin-1-yl]-propan-1-one] | 7 ± 0 % of control | 6 ± 1 % of control | 11.2 ± 1.5 % of control
CC(=O)Oc1ccc(C(=O)C=Cc2ccccc2)c([N+](=O)[O-])c1OC(C)=O [Compound 40, Acetic acid, 6-acetoxy-2-nitro-3-(3-phenyl-acryloyl)-phenyl ester] | 10 ± 0 % of control | 8 ± 1 % of control | 1.6 ± 0.4 % of control
COc1cc(C=C2CCc3cc(O)c(O)c([N+](=O)[O-])c3C2=O)cc([N+](=O)[O-])c1O [Compound 11, 6,7-Dihydroxy-2-(4-hydroxy-3-methoxy-5-nitro-benzylidene)-8-nitro-3,4-dihydro-2H-naphthalen-1-one] | 32 ± 2 % of control | 47 ± 2 % of control | 1.1 ± 0.3 % of control
O=C1CCCc2cc(O)c(O)c([N+](=O)[O-])c21 [Compound 1, 6,7-Dihydroxy-8-nitro-3,4-dihydro-2H-naphthalen-1-one] | 15 ± 4 % of control | 46 ± 1 % of control | 1.2 ± 0.2 % of control
CCCC(=O)Oc1ccc(C(=O)CCc2ccccc2)c([N+](=O)[O-])c1OC(=O)CCC [Compound 19, Butyric acid, 6-butyryloxy-2-nitro-3-(3-phenyl-propionyl)-phenyl ester] | 8 ± 1 % of control | 0 ± 0 % of control | 0.2 ± 0.1 % of control
CC(=O)OC(=Cc1ccccc1)c1ccc(OC(C)=O)c(OC(C)=O)c1[N+](=O)[O-] [Compound 46, Acetic Acid, 2-Acetoxy4-(I-acetoxy-2-phenyl-vinyl)-3-nitro-phenyl Ester] | – | 1 ± 1 % of control | –
